Results as given in PubChem BioAssay (NCI).
“And” between values parts separate entries of the source, which are not always exact repeats. Equal entries are not always repeated.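 Step 1: Grow cells in 96-well plates. Step 2: Expose to compound for 48 hours at 5 concentrations. Step 3: Interpolate endpoints linearly; if unreached, use highest concentration. The concentration for 50% growth inhibition is given as GI50. TGI is the concentration that stops growth completely.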

Tests used:
Experiment in all cases: inhibition of tumour cell growth, NCI panel, 48 h
[1] = system: DU-145 prostate
[2] = system: OVCAR-5 ovarian
[3] = system: SW-620 colon
[4] = system: 786-0 renal
[5] = system: CAKI-1 renal
[6] = system: PC-3 prostate
[7] = system: A549 NSCLC
[8] = system: A498 renal
[9] = system: HCT-15 colon
[10] = system: TK-10 renal
[11] = system: HL-60(TB) leukemia

Row | Compound | TGI [1] [µM] | TGI [2] [µM] | TGI [3] | TGI [4] | TGI [5] | TGI [6] [µM] | TGI [7] [µM] | TGI [8] [µM] | TGI [9] | TGI [10] | TGI [11] | GI50 [1] [µM] | GI50 [5] | GI50 [10] | GI50 [11]
1 | COc1ccc2nc3ccc(OC)cc3c(S(=O)(=O)Cc3ccc([N+](=O)[O-])cc3)c2c1 | > 100 | > 100 | > 100 µM | > 100 µM | > 100 µM | > 100 | > 100 | > 100 | > 100 µM | > 100 µM | > 100 µM | – | – | – | –
2 | CC1=C2c3c(C)ccc4ccc(C)c(c34)C2(O)C(C)C1=O (stereo unspecified) | > 100 | > 100 | > 100 µM | > 100 µM | > 100 µM | > 100 | > 100 | > 100 | > 100 µM | > 100 µM | 91.6 µM | – | – | – | –
3 | CC(=O)C(=[N+]=[N-])C(=O)OC(C)(C)C#N | > 10 | > 10 | > 10 µM | > 10 µM | > 10 µM | > 10 | > 10 | > 10 | > 10 µM | > 10 µM | > 10 µM | – | – | – | –
4 | CCCCCCOc1ccc(C(=O)NOCc2ccccc2)cc1 | > 100 | > 100 | > 100 µM | > 100 µM | > 100 µM | > 100 | > 100 | > 100 | > 100 µM | > 100 µM | > 100 µM | – | – | – | –
5 | Cc1cccc2c1Oc1ccccc1C2NC(=O)c1ccc([N+](=O)[O-])cc1 (stereo unspecified) | > 100 | > 100 | > 100 µM | > 100 µM | > 100 µM | > 100 | > 100 | > 100 | > 100 µM | > 100 µM | > 100 µM | – | – | – | –
6 | O=C(O)C1CCCN1Cc1cc2ccccc2c2ccccc12 (stereo unspecified) | > 100 | > 100 | > 100 µM | > 100 µM | > 100 µM | > 100 | > 100 | > 100 | > 100 µM | > 100 µM | > 100 µM | – | – | – | –
7 | O=C(NNC(=S)Nc1ccccc1)c1ccccc1Nc1ccccc1C(=O)NNC(=S)Nc1ccccc1 | > 100 | 33.6 | > 100 µM | 41.5 µM | > 100 µM | 64.8 | > 100 | > 100 | > 100 µM | 68.7 µM | > 100 µM | – | – | – | –
8 | COc1cc(-c2oc3c(OC)c(O)c(OC)c(O)c3c(=O)c2OC)cc(O)c1OC | > 100 | > 100 | > 100 µM | > 100 µM | > 100 µM | > 100 | > 100 | 75.4 | > 100 µM | > 100 µM | 57.9 µM | – | – | – | –
9 | CC1(C)N=C(C(N)=O)c2ncn(-c3ccccc3)c2N1 | > 100 | > 100 | > 100 µM | > 100 µM | > 100 µM | > 100 | > 100 | > 100 | > 100 µM | > 100 µM | > 100 µM | – | – | – | –
10 | O=C1C(/C=C/c2ccc(Cl)cc2)=NNC2N1N=C1NC(=O)C3(NN12)c1ccccc1-c1ccccc13 (stereo unspecified) | > 100 | > 100 | > 100 µM | > 100 µM | > 100 µM | > 100 | > 100 | > 100 | > 100 µM | > 100 µM | > 100 µM | – | – | – | –
11 | O=C(CC(=O)N1N=C(N2CCCCC2)CC1c1ccccc1)Nc1ccc(Cl)cc1 (stereo unspecified) | > 100 | > 100 | > 100 µM | > 100 µM | > 100 µM | > 100 | > 100 | > 100 | > 100 µM | > 100 µM | > 100 µM | – | – | – | –
12 | O=C1C(CN2CCCCC2)CCCC1CN1CCCCC1 (stereo unspecified) | 32.2 | > 100 | 24.6 µM and 13.7 µM | 22.3 µM and 15 µM | 26.2 µM and 11.9 µM | 29.8 | > 100 | > 100 | 28.2 µM and 42.8 µM | > 100 µM and 28.4 µM | 39.3 µM and > 63.1 µM | 0.059 | 13 µM and 5.2 µM | > 100 µM and 12.4 µM | 19 µM and 8.6 µM
13 | CSc1nc(-c2cc3c(c(SC)n2)CCCCC3)cc2c1CCCCC2 | > 100 | > 100 | > 100 µM | > 100 µM | > 100 µM | > 100 | > 100 | > 100 | > 100 µM | > 100 µM | > 100 µM | – | – | – | –
14 | O=C(/C=C/c1ccc(Cl)cc1)Oc1ccc(/C=C2\CCCCC2=O)cc1 | > 100 | > 100 | > 100 µM | > 100 µM | > 100 µM | > 100 | > 100 | > 100 | > 100 µM | > 100 µM | > 100 µM | – | – | – | –
15 | COc1ccc(N2C(=O)C3ON(C(C(N)=O)c4ccccc4)C(c4ccc(-c5ccccc5)cc4)C3C2=O)cc1 (stereo unspecified) | > 50 | > 50 | > 50 µM | > 50 µM | > 50 µM | > 50 | > 50 | > 50 | > 50 µM | > 50 µM | > 50 µM | – | – | – | –
16 | CC(C)NC(=O)CN1CCN(C2=CC(=O)c3c(O)ccc(O)c3C2=O)CC1 | 29.7 | 33.5 | 14.4 µM | 42.4 µM | > 60.7 µM | > 80.5 | 35.2 | 46 | 45.3 µM | 31.5 µM | 5.99 µM | – | – | – | –
17 | CC1OC(OC2C(O[C@H]3CC[C@@]4(C)[C@@H](CC[C@@H]5[C@@H]4CC[C@]4(C)[C@@H]6[C@H](C[C@@H]54)O[C@]4(CC[C@@H](C)CO4)[C@H]6C)C3)OC(CO)C(OC3OC(CO)C(O)C(OC4OCC(O)C(O)C4O)C3OC3OCC(O)C(O)C3O)C2O)C(O)C(O)C1O (stereo partly specified) | 2.73 | 2.42 | 0.348 µM | 3.02 µM | 2.53 µM | 1.8 | 1.05 | 3.78 | 2.61 µM | – | 1.01 µM | – | – | – | –
18 | CC1=C2C(=O)[C@H]3[C@@H](CC=C4C[C@@H](O)CC[C@@]43C)[C@@H]2CC[C@]12O[C@@H]1C[C@H](C)CN[C@H]1[C@H]2C | > 100 | > 100 | > 79.9 µM | > 57.5 µM | > 59.2 µM | > 100 | > 64.2 | > 57.9 | > 81.3 µM | > 53.8 µM | > 65.5 µM | – | – | – | –
